Experimental data taken from publication PMC8102477 (2021).

How the values were obtained:
[1] = system: 22AG (DNA, G4) AGGGTTAGGGTTAGGGTTAGGG; experiment: fluorescence titration (ThT titrated with 22AG); conditions: 30 mM Tris-HCl pH 7.4, 25 °C, 1 bar, 2.14 µM ThT
[2] = system: labelled 22AG (DNA, G4) AGGGTTAGGGTTAGGGTTAGGG; experiment: FRET efficiency (FAM/TAMRA); conditions: no added Na+ or K+; 30 mM Tris-HCl pH 7.4, 25 °C, 1 bar; 2 µM DNA, 20 µM ThT; Erel rises on binding

Cc1ccc2c(c1)sc(-c1ccc(N(C)C)cc1)[n+]2C
Kb ([1]; 60 mM KCl, equivalent independent sites fit): 3.51 ± 0.42 × 10^5 M^-1 | Kb ([1]; 60 mM NaCl, equivalent independent sites fit): 0.42 ± 0.04 × 10^5 M^-1 | Kb ([1]; no added Na+ or K+, 3 equivalent sites, free DNA mainly unfolded): 0.87 ± 0.06 × 10^5 M^-1 | binding [2]: yes
